Values of other authors as cited in patent US9603795B2, “Composite for preparing a transdermal delivery device and method for synthesizing the composite thereof” (City University of Hong Kong, priority 2014, dated 2017).

Settings: oral administration

## OC[C@H]1O[C@@H]2O[C@H]3[C@H](O)[C@@H](O)[C@@H](O[C@H]4[C@H](O)[C@@H](O)[C@@H](O[C@H]5[C@H](O)[C@@H](O)[C@@H](O[C@H]6[C@H](O)[C@@H](O)[C@@H](O[C@H]7[C@H](O)[C@@H](O)[C@@H](O[C@H]8[C@H](O)[C@@H](O)[C@@H](O[C@H]1[C@H](O)[C@H]2O)O[C@@H]8CO)O[C@@H]7CO)O[C@@H]6CO)O[C@@H]5CO)O[C@@H]4CO)O[C@@H]3CO [β-CD, β-cyclodextrin]
  amount absorbed in the upper intestinal tract: 1-2%
